Experimental data published in the CombiSolv-Exp solvation set (Vermeire and Green 2021).

Assay: solvent given as SMILES

O=C(O)c1cccc([N+](=O)[O-])c1
Details	solvation free energy, 298 K [kcal/mol]
in C1CCOC1	-12.5
in C1COCCO1	-12.2
in CC(C)(C)O	-12.4
in CC(C)CCO	-11.8
in CC(C)CO	-12.1
in CC(C)O	-12.4
in CCC(C)O	-12.3
in CCCC(C)O	-12.2
in CCCCCCCCCCO	-11.8
in CCCCCCCCO	-11.9
in CCCCCCCO	-11.9
in CCCCCCO	-12
in CCCCCO	-12.1
in CCCCO	-12.2
in CCCCOC(C)=O	-11.6
in CCCO	-12.3
in CCO	-12.5
in CCOC(C)=O	-11.9
in CCOCC	-12.1
in CO	-12.7
in COC(C)=O	-12.1
in O	-9.45

CCCCO[N+](=O)[O-]
Details	solvation free energy, 298 K [kcal/mol]
in O	-2.09

CC1(C)C2CC3C(C2)C31C
Details	solvation free energy, 298 K [kcal/mol]
in O	0.87

CC(=O)N(C)C
Details	solvation free energy, 298 K [kcal/mol]
in C1CCCCC1	-4.97
in C=CCCCCCCC=C	-5.22
in CC(C)CC(C)(C)C	-5.19
in CCCCCCCCCCCCCCCC	-4.26
in O	-8.15
in [2H]O[2H]	-7.78
in c1ccccc1	-6.41

CCC(C)C(C)C (configuration not stated)
Details	solvation free energy, 298 K [kcal/mol]
in C=CCCCCCCCCCCCCCC	-3.97
in CC#N	-3.2

O=[N+]([O-])c1cc[n+]([O-])cc1
Details	solvation free energy, 298 K [kcal/mol]
in CC(C)CC(C)(C)C	-7.06
in CCCCCC	-7.08
in CCCCCCC	-7.12
in CCCCCCCC	-7.13
in CCCCCCCCCC	-7.16

COCc1ccc(C(=O)O)cc1
Details	solvation free energy, 298 K [kcal/mol]
in C=CCCCCCCCCCCCCCC	-8.27
in O	-9.89

CCCCCCCCCCCCOC(=O)c1ccccc1C(=O)OCCCCCCCCCCCC
Details	solvation free energy, 298 K [kcal/mol]
in O	-5.92

O=[N+]([O-])c1cccc(CO)c1
Details	solvation free energy, 298 K [kcal/mol]
in O	-9.19

CCOP(=S)(OCC)Oc1cc(C)nc(C(C)C)n1
Details	solvation free energy, 298 K [kcal/mol]
in O	-6.48

CCCCCCCCC=CCCCCCCCCCCCC(=O)OC
Details	solvation free energy, 298 K [kcal/mol]
in O	-1.09

CCCCCOC(=O)c1ccccc1C(=O)OCCCCC
Details	solvation free energy, 298 K [kcal/mol]
in O	-6.96

O=C(O)c1cccc([N+](=O)[O-])c1C(=O)O
Details	solvation free energy, 298 K [kcal/mol]
in C1CCOC1	-19.1
in C1COCCO1	-18.7
in CC(C)=O	-18.5
in CC(C)CO	-17.8
in CC(C)O	-18.4
in CCC(C)O	-18.1
in CCCCCCCO	-17.6
in CCCCCCO	-17.7
in CCCCCO	-17.8
in CCCCO	-17.9
in CCCO	-18.3
in CCOC(C)=O	-17.3
in COC(C)=O	-18.2
in O	-17.3

Clc1ccc(C(c2ccc(Cl)cc2)C(Cl)(Cl)Cl)cc1
Details	solvation free energy, 298 K [kcal/mol]
in CCCCCCCCC=CCCCCCCCC(=O)OCC(COC(=O)CCCCCCCC=CCCCCCCCC)OC(=O)CCCCCCCC=CCCCCCCCC	-14.9
in CCCCCCCCO	-13.8
in O	-4.61

CCCCCCl
Details	solvation free energy, 298 K [kcal/mol]
in C1CCOC1	-5.67
in C1CCOCC1	-5.23
in C1COCCO1	-4.94
in C=CCCCCCCCCCCCCCC	-4.46
in CC(C)=O	-4.86
in CCCCCC	-4.76
in CCCCCCCCC=CCCCCCCCC(=O)OCC(COC(=O)CCCCCCCC=CCCCCCCCC)OC(=O)CCCCCCCC=CCCCCCCCC	-4.62
in CCCCCCCCCCCCCCCC	-4.39
in CCCCOCCCC	-4.79
in O	-0.06

CSC
Details	solvation free energy, 298 K [kcal/mol]
in C=C(C)CC(C)(C)C	-3.04
in C=CCCCC	-3.07
in CC(C)CC(C)(C)C	-2.9
in CCCCCC	-2.97
in ClC(Cl)(Cl)Cl	-3.6
in ClC(Cl)Cl	-4.08
in O	-1.5

O=c1[nH]cc(Cl)c(=O)[nH]1
Details	solvation free energy, 298 K [kcal/mol]
in O	-17.7

C=CC(C)(C)C
Details	solvation free energy, 298 K [kcal/mol]
in C=CCCCCCCCCCCCCCC	-2.97
in O	1.57

CCCC(C)CC (configuration not stated)
Details	solvation free energy, 298 K [kcal/mol]
in C=CCCCCCCCCCCCCCC	-4.01

CC(F)F
Details	solvation free energy, 298 K [kcal/mol]
in CC(C)(C)O	-1.42
in CC(C)CCO	-1.3
in CC(C)CO	-1.35
in CC(C)O	-1.5
in CCC(C)(C)O	-1.36
in CCC(C)CO	-1.23
in CCC(C)O	-1.32
in CCC(O)CC	-1.24
in CCCC(C)O	-1.21
in CCCCCCCC(=O)OCC(COC(=O)CCCCCCC)OC(=O)CCCCCCC	-1.37
in CCCCCCCCC	-1.08
in CCCCCCCCO	-1.07
in CCCCCO	-1.28
in CCCCO	-1.36
in CCCO	-1.49
in CN1CCCC1=O	-2.02
in CN(C)C=O	-2.11
in CO	-1.91
in Cc1ccc(C)cc1	-1.62
in Cc1cccc(C)c1	-1.63
in Cc1ccccc1C	-1.62
in O	-0.12

Oc1c(I)cc(I)cc1I
Details	solvation free energy, 298 K [kcal/mol]
in CC(C)CC(C)(C)C	-12.4
in CCCCOCCCC	-14.2
in O	-7.16

CCCCCCC
Details	solvation free energy, 298 K [kcal/mol]
in BrC(Br)C(Br)Br	-3.34
in Brc1ccccc1	-4.35
in C1CCC(C2CCCCC2)CC1	-4.48
in C1CCCCC1	-4.83
in C1CCOC1	-4.58
in C1COCCO1	-3.86
in C=CCCCC	-4.71
in C=CCCCCCC	-4.63
in C=CCCCCCCCC	-4.55
in C=CCCCCCCCCCCCCCC	-4.24
in CC1CCS(=O)(=O)C1	-2.68
in CC1COC(=O)O1	-2.54
in CC#N	-3.18
in CC(=O)CC(C)C	-4.36
in CC(=O)N(C)C	-3.36
in CC(=O)O	-3.43
in CC(=O)c1ccccc1	-3.69
in CC(C)(C)O	-3.96
in CC(C)=O	-3.84
in CC(C)CC(C)(C)C	-4.6
in CC(C)CCCC(C)CCCC(C)CCCCC(C)CCCC(C)CCCC(C)C	-4.16
in CC(C)CCO	-3.97
in CC(C)CO	-3.92
in CC(C)O	-3.81
in CC(C)OC(C)C	-4.63
in CC(O)CO	-2.33
in CCBr	-4.71
in CCC(C)=O	-4.12
in CCCC#N	-3.69
in CCCC(=O)OCC	-4.35
in CCCC(C)=O	-4.17
in CCCC(C)O	-3.99
in CCCCC	-4.77
in CCCCC(CC)COC(=O)CCCCC(=O)OCC(CC)CCCC	-4.01
in CCCCC(CC)COC(=O)c1ccccc1C(=O)OCC(CC)CCCC	-3.79
in CCCCCC	-4.77
in CCCCCC(C)=O	-4.2
in CCCCCCCC	-4.62
in CCCCCCCCC	-4.57
in CCCCCCCCC=CCCCCCCCC(=O)OCC(COC(=O)CCCCCCCC=CCCCCCCCC)OC(=O)CCCCCCCC=CCCCCCCCC	-4.09
in CCCCCCCCCC	-4.53
in CCCCCCCCCCCC	-4.43
in CCCCCCCCCCCCCCCC	-4.34
in CCCCCCCCCCCCO	-3.99
in CCCCCCCCO	-4.02
in CCCCCCO	-4
in CCCCCCOC(C)=O	-4.27
in CCCCCl	-4.61
in CCCCN(C=O)CCCC	-3.9
in CCCCO	-3.95
in CCCCOC(=O)c1ccccc1C(=O)OCCCC	-3.88
in CCCCOC(C)=O	-4.23
in CCCCOCCCC	-4.57
in CCCCl	-4.81
in CCCO	-3.83
in CCN1CCCC1=O	-3.49
in CCN(CC)C(C)=O	-3.74
in CCN(CC)CC	-4.68
in CCNC(C)=O	-3.51
in CCNC=O	-3.25
in CCO	-3.7
in CCOC(=O)c1ccccc1C(=O)OCC	-3.35
in CCOC(C)(C)C	-4.62
in CCOC(C)=O	-4.09
in CCOCC	-4.66
in CCOCCO	-3.57
in CCOCCOCCOCC	-4.04
in CCOc1ccccc1	-4.15
in CN1CCCC1=O	-3.2
in CN1CCCCC1=O	-3.41
in CN1CCN(C)C1=O	-3.1
in CN(C)C=O	-3.16
in CN(C)P(=O)(N(C)C)N(C)C	-3.67
in CNC(C)=O	-3.34
in CNC=O	-2.85
in CO	-3.39
in COC(C)(C)C	-4.68
in COC(C)=O	-3.89
in COCCO	-3.24
in COCCOCCOCCOCCOC	-3.41
in COc1ccccc1	-4.06
in CS(C)=O	-2.27
in Cc1ccc(C)cc1	-4.58
in Cc1cccc(O)c1	-3.53
in Cc1ccccc1	-4.57
in Cc1ccccn1	-4.16
in ClC(Cl)(Cl)Cl	-4.81
in ClC(Cl)Cl	-4.64
in ClCCCl	-4.09
in ClCCl	-4.45
in Clc1ccccc1	-4.56
in FC(F)(F)C(F)(F)C(F)(F)C(F)(F)C(F)(F)C(F)(F)C(F)(F)C(F)(F)F	-2.98
in FC(F)(F)C(F)(F)C(F)(F)C(F)(F)C(F)(F)C(F)(F)C(F)(F)F	-3.2
in FC(F)(F)C(F)(F)C(F)(F)C(F)(F)C(F)(F)C(F)(F)F	-3.06
in Fc1ccccc1	-4.51
in ICI	-2.72
in N#CCCCCC#N	-2.45
in N#CCCOCCC#N	-1.99
in N#Cc1ccccc1	-3.76
in NC=O	-0.97
in NCCO	-1.34
in Nc1ccccc1	-2.99
in O=C1CCCCC1	-4
in O=C1CCCO1	-2.72
in O=C(O)C(Cl)Cl	-3.36
in O=CN1CCOCC1	-2.52
in O=Cc1ccco1	-2.96
in OCCCCCO	-2.53
in OCCCCO	-2.45
in OCCCO	-2.09
in OCCO	-1.22
in OCCOCCO	-1.9
in OCCOCCOCCO	-1.97
in OCCOCCOCCOCCO	-2.13
in OCCS	-2.46
in OCCc1ccccc1	-3.37
in OCc1ccccc1	-3.24
in OCc1ccco1	-2.87
in S=C=S	-4.76
in c1ccc2c(c1)CCCC2	-4.37
in c1ccc2ncccc2c1	-3.86
in c1ccc(C2CCCCC2)cc1	-4.33
in c1ccccc1	-4.55
in c1ccncc1	-3.9
